This note sets out measurements from ChEMBL document CHEMBL1649393, “Synthesis and antimicrobial activity of thiosemicarbazides, s-triazoles and their Mannich bases bearing 3-chlorophenyl moiety” (2011).

SMILES strings stand for the structures. ≈ marks a conversion by molar mass, not a printed value.

What all share (assay type): functional
For assay [1], the system named is Staphylococcus aureus. The assay is described as follows: Antimicrobial activity against Staphylococcus aureus ATCC 6538 after 18 hrs by broth microdilution method. The settings on record: ATCC 6538, 18 h. (In general: In broth dilution the organism is exposed to a series of concentrations in liquid medium.)
Assay [2] deals with Bacillus subtilis. The assay is described as follows: Antimicrobial activity against Bacillus subtilis ATCC […] after 18 hrs by broth microdilution method.
Assay [3] deals with Proteus mirabilis. In words: Antimicrobial activity against Proteus mirabilis ATCC 12453 assessed as >99.9 % reduction in CFU after 18 hrs by broth microdilution method. The settings on record: ATCC 12453, 18 h.
Assay [4] relates to Bacillus cereus. In words: Antimicrobial activity against Bacillus cereus ATCC 10876 after 18 hrs by broth microdilution method. The note with it: ATCC 10876, 18 h.
The test system of assay [5] is Klebsiella pneumoniae. In words: Antimicrobial activity against Klebsiella pneumoniae ATCC 13883 assessed as >99.9 % reduction in CFU after 18 hrs by broth microdilution method. The note with it: ATCC 13883, 18 h.
Assay [6] deals with Micrococcus luteus. In words: Antimicrobial activity against Micrococcus luteus ATCC 10240 after 18 hrs by broth microdilution method. The settings on record: ATCC 10240, 18 h.
Assay [7] concerns Proteus mirabilis. The assay is described as follows: Antimicrobial activity against Proteus mirabilis ATCC 12453 after 18 hrs by broth microdilution method. The note with it: ATCC 12453, 18 h.
Assay [8] has as its system Micrococcus luteus. In words: Antimicrobial activity against Micrococcus luteus ATCC 10240 assessed as >99.9 % reduction in CFU after 18 hrs by broth microdilution method. The settings on record: ATCC 10240, 18 h.
For assay [9], the system named is Staphylococcus aureus. The assay is described as follows: Antimicrobial activity against Staphylococcus aureus ATCC 6538 assessed as >99.9 % reduction in CFU after 18 hrs by broth microdilution method. The settings on record: ATCC 6538, 18 h.
In assay [10] the test system is Staphylococcus epidermidis. The assay is described as follows: Antimicrobial activity against Staphylococcus epidermidis ATCC 12228 after 18 hrs by broth microdilution method. The settings on record: ATCC 12228, 18 h.
For assay [11], the system named is Bacillus subtilis. The assay is described as follows: Antimicrobial activity against Bacillus subtilis ATCC […] assessed as >99.9 % reduction in CFU after 18 hrs by broth microdilution method.
Assay [12] concerns Staphylococcus aureus. The assay is described as follows: Antimicrobial activity against Staphylococcus aureus ATCC 25923 assessed as >99.9 % reduction in CFU after 18 hrs by broth microdilution method. The settings on record: ATCC 25923, 18 h.
Assay [13] has as its system Escherichia coli. In words: Antimicrobial activity against Escherichia coli ATCC 25922 after 18 hrs by broth microdilution method. The note with it: ATCC 25922, 18 h.
Assay [14] concerns Staphylococcus aureus. The assay is described as follows: Antimicrobial activity against Staphylococcus aureus ATCC 25923 after 18 hrs by broth microdilution method. The note with it: ATCC 25923, 18 h.
Assay [15] has as its system Escherichia coli. In words: Antimicrobial activity against Escherichia coli ATCC 25922 assessed as >99.9 % reduction in CFU after 18 hrs by broth microdilution method. The settings on record: ATCC 25922, 18 h.
In assay [16] the test system is Bacillus cereus. In words: Antimicrobial activity against Bacillus cereus ATCC 10876 assessed as >99.9 % reduction in CFU after 18 hrs by broth microdilution method. The settings on record: ATCC 10876, 18 h.
In assay [17] the test system is Klebsiella pneumoniae. In words: Antimicrobial activity against Klebsiella pneumoniae ATCC 13883 after 18 hrs by broth microdilution method. The note with it: ATCC 13883, 18 h.
In assay [18] the test system is Staphylococcus epidermidis. In words: Antimicrobial activity against Staphylococcus epidermidis ATCC 12228 assessed as >99.9 % reduction in CFU after 18 hrs by broth microdilution method. The settings on record: ATCC 12228, 18 h.

Turning to `S=c1n(CN2CCCC2)nc(-c2cccc(Cl)c2)n1-c1ccccc1Br`, the MIC (in general, the least concentration at which growth counts as inhibited) was 250 µg/mL (≈ 556 µM) in [1]; greater than 1000 µg/mL in assay [2]; greater than 1000 µg/mL in assay [4]; 500 µg/mL (≈ 1110 µM) in assay [6]; greater than 1000 µg/mL in [7] (read-out: MIC); 500 µg/mL (≈ 1110 µM) in assay [10]. The MIC is greater than 1000 µg/mL in assay [13], 250 µg/mL (≈ 556 µM) in assay [14] and greater than 1000 µg/mL in assay [17]. Besides, the MBC in [3] (read-out: MBC), in [5] (read-out: MBC), in [8], in [9], in assay [11] and in assay [12] was greater than 1000 µg/mL each time. Further, the MBC in [15], in [16] and in assay [18] was greater than 1000 µg/mL in each case.
With `S=c1n(CN2CCCC2)nc(-c2cccc(Cl)c2)n1-c1ccccc1I`, the MIC is 500 µg/mL (≈ 1010 µM) in assay [1]; 250 µg/mL (≈ 503 µM) in assay [2]; 500 µg/mL (≈ 1010 µM) in assay [4]; 500 µg/mL (≈ 1010 µM) in assay [6]; greater than 1000 µg/mL in assay [7] (read-out: MIC); 500 µg/mL (≈ 1010 µM) in [10]. Moreover, the MIC in assay [13] is greater than 1000 µg/mL; in [14] it was 500 µg/mL (≈ 1010 µM); in assay [17] it was greater than 1000 µg/mL. For the same compound, the MBC in assay [3] (read-out: MBC), in [5] (read-out: MBC), in [8], in assay [9], in [11] and in assay [12] was greater than 1000 µg/mL throughout. Further, the minimum bactericidal concentration (MBC) in assay [15], in assay [16] and in assay [18] was greater than 1000 µg/mL each time.
Regarding `Fc1cccc(F)c1-n1c(-c2cccc(Cl)c2)nn(CN2CCCC2)c1=S`, the MIC worked out at 125 µg/mL (≈ 307 µM) in assay [1]; 125 µg/mL (≈ 307 µM) in [2]; 125 µg/mL (≈ 307 µM) in assay [4]; 1000 µg/mL (≈ 2460 µM) in [7]; 125 µg/mL (≈ 307 µM) in assay [10]; 500 µg/mL (≈ 1230 µM) in [13]. In [14], the MIC is 125 µg/mL (≈ 307 µM). Also, the MBC (in general, the smallest concentration meeting the test's criterion for killing) came to 1000 µg/mL (≈ 2460 µM) in [3]; 1000 µg/mL (≈ 2460 µM) in [5]; 1000 µg/mL (≈ 2460 µM) in assay [6]; 1000 µg/mL (≈ 2460 µM) in assay [8]; 500 µg/mL (≈ 1230 µM) in assay [9]; 500 µg/mL (≈ 1230 µM) in assay [11]. Also, the minimum bactericidal concentration (MBC) in assay [12] worked out at 500 µg/mL (≈ 1230 µM); in assay [15], 1000 µg/mL (≈ 2460 µM); in [16], 1000 µg/mL (≈ 2460 µM); in assay [17] it was 1000 µg/mL (≈ 2460 µM); in [18] it was 1000 µg/mL (≈ 2460 µM).
